Measured values from US9181266B2, “2-piperidin-1-yl-acetamide compounds for use as tankyrase inhibitors” (NOVARTIS AG, priority 2011, dated 2015).

Columns and labels:
[1] = target: Human PARP1 (Homo sapiens (Human), UniProt P09874); assay: PARP1 autoparsylation assay (LC/MS detection of nicotinamide); assay type: biochemical; conditions: 20 nM enzyme, 250 μM β-NAD+, 60 min
Method: (§1) The autoparsylation activity of the TNKS 1/2 or PARP1/2 enzymes was measured by the liquid chromatography-mass spectrometry (LC/MS) detection of nicotinamide as readout. Compound activity in inhibiting the TNKS and PARP autoparsylation was evaluated by IC50 measurements.

[2] = target: PARP2 (Mus musculus (Mouse), UniProt O88554); assay: PARP2 autoparsylation assay (LC/MS detection of nicotinamide); assay type: biochemical; conditions: 20 nM enzyme, 250 μM β-NAD+, 60 min
Method: as §1

[3] = system: Wnt ligand-induced signaling in HEK293 cells; assay: Wnt-responsive Super-TOpFlash (STF) luciferase reporter gene assay; assay type: cell-based; conditions: Homo sapiens, Wnt3A condition medium
In short: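 HEK293 cells (8000/well, 5% FBS medium) treated with 20% mouse L-cell Wnt3A conditioned medium plus compounds in 10-point serial dilution; luciferase read next day. Inhibition calculated relative to Wnt3A-induced signal without compound and background without Wnt3A CM or compound.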

[4] = system: Axin2 protein in SW480 cells; assay: Cellular ELISA assay of Axin2 protein stabilization; assay type: cell-based; conditions: Homo sapiens, 24 hrs, read-out: Axin AC50
In short: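 SW480 colorectal cells seeded overnight, treated with compound, then lysed. Axin2 in lysates measured by sandwich ELISA: anti-Axin2 capture antibody coated at 1 μg/ml (pH 9.2), lysate 2 h at room temperature, biotinylated anti-Axin2 detection 2 h, then streptavidin-HRP 30 min.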

[5] = system: Non-small lung cancer ABC-1 cells; assay: Cellular proliferation assay (CellTiter-Glo); assay type: cell-based; conditions: Homo sapiens, 72 h; ABC-1 cells, 3 days of compound treatment; read-out: ABC-1 IC50
Method: Cellular Proliferation Assay to Determine Compound Inhibition of Cancer Cell Growth
Viable cells were measured after 3 days of compound treatment using the CellTiter-Glo assay (Promega, G7570). Assay was performed following the manufacture protocol.

[6] = target: human tankyrase 1 PARP catalytic domain, TNKS1P (Homo sapiens (Human), UniProt O95271); assay: TNKS1 autoparsylation assay (LC/MS detection of nicotinamide); conditions: read-out: TNKS1 AP IC50, 20 nM enzyme, 250 μM β-NAD+, 60 min
[7] = target: tankyrase 2 protein PARP domain, TNKS2P (Homo sapiens (Human), UniProt Q9H2K2); assay: TNKS2 autoparsylation assay (LC/MS detection of nicotinamide); conditions: read-out: TNKS2 AP IC50, 20 nM enzyme, 250 μM β-NAD+, 60 min
Chain of tankyrase 2 protein PARP domain, TNKS2P (Q9H2K2 959-1164): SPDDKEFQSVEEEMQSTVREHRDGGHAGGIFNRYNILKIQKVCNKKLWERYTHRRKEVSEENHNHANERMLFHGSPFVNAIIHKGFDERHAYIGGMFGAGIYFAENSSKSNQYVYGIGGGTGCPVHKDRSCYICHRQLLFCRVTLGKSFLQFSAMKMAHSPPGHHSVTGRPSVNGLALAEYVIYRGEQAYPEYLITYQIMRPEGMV
Method: Biochemical Assay to Determine Compound Inhibition of TNKS Enzyme Activity
The autoparsylation activity of the TNKS 1/2 or PARP1/2 enzymes was measured by the liquid chromatography-mass spectrometry (LC/MS) detection of nicotinamide as readout. Compound activity in inhibiting the TNKS and PARP autoparsylation was evaluated by IC50 measurements. […] For the background control wells, 10 μL of the 5× quenching solution per well was added prior to the addition of β-NAD^+. The % Inhibition was calculated as: (Control−Sample)/(Control−Background)*100.

Chain of Human PARP1 (P09874 whole entry): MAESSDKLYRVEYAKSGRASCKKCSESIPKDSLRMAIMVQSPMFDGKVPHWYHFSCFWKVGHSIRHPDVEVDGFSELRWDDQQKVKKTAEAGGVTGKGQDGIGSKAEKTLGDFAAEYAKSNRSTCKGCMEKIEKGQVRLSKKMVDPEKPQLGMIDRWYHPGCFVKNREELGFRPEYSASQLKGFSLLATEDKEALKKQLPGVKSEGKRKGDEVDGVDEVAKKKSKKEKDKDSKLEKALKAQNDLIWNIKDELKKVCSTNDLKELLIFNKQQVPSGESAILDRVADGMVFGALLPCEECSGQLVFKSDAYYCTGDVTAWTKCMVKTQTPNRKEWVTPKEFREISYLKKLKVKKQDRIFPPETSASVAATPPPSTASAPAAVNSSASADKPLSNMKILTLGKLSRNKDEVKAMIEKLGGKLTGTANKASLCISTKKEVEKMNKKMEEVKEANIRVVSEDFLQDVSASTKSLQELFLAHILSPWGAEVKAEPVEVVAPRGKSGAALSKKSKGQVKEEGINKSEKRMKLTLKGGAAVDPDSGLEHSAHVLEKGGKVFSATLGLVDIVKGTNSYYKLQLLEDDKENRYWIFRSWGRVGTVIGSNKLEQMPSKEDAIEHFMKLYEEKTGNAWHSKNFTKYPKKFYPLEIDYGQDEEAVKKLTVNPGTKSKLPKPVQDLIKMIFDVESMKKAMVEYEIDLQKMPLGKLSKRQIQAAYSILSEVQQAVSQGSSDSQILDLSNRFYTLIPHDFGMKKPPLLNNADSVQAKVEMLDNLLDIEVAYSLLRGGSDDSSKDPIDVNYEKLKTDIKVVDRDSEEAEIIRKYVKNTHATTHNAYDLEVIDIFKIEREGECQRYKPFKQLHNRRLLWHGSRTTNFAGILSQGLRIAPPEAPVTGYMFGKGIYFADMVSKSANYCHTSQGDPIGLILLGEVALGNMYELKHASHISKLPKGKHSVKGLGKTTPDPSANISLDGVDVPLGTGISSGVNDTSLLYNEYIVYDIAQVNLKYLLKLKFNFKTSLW
Chain of human tankyrase 1 PARP catalytic domain, TNKS1P (O95271 1112-1317): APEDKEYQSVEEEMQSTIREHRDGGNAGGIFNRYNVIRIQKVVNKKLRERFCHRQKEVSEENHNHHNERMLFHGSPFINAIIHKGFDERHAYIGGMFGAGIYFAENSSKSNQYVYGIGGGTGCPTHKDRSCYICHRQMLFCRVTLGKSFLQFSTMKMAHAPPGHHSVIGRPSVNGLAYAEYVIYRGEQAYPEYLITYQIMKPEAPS
Chain of PARP2 (O88554 whole entry): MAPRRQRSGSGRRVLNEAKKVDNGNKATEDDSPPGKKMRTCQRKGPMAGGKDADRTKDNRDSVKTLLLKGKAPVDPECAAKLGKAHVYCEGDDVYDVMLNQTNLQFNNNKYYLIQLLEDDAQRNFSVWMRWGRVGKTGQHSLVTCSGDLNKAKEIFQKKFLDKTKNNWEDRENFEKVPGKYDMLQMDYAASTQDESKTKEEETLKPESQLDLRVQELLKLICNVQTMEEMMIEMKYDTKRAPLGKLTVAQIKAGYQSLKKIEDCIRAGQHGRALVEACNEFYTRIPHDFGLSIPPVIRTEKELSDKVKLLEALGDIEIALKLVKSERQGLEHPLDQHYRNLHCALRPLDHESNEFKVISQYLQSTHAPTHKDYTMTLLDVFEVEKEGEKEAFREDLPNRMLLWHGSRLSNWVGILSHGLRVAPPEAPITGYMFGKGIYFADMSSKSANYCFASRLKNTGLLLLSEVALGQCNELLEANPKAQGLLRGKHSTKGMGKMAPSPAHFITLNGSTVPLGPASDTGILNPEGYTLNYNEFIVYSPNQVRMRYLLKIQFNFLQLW

Row | Compound | IC50 [1] [nM] | IC50 [2] [nM] | IC50 [3] [nM] | AC50 [4] [nM] | IC50 [5] [nM] | IC50 [6] [nM] | IC50 [7] [nM]
1 | O=C(CN1CCC(C(=O)c2ccc(Cl)cc2)CC1)NCc1nc2c(c(=O)[nH]1)COCC2 [Example 2, 2-[4-(4-Chloro-benzoyl)-piperidin-1-yl]-N-(4-oxo-3,5,7,8-tetrahydro-4H-pyrano[4,3-d]-pyrimidin-2-ylmethyl)-acetamide] | 9100 ± 1000 | 2590 ± 290 | 10 ± 2 | 205 ± 61 | 393 | 37 ± 2 | 7
2 | CC(C)Oc1ccc(C(=O)C2CCN(CC(=O)NCc3nc4c(c(=O)[nH]3)COCC4)CC2)cc1 [Example 3, 2-[4-(4-Isopropoxy-benzoyl)-piperidin-1-yl]-N-(4-oxo-3,5,7,8-tetrahydro-4H-pyrano[4,3-c]pyrimidin-2-ylmethyl)-acetamide] | 5630 ± 730 | 2100 ± 240 | 23 ± 2 | 62 ± 16 | 105 | 35 ± 9 | 14 ± 1
3 | O=C(CN1CCC(C(=O)c2ccc(F)cc2)CC1)NCc1nc2c(c(=O)[nH]1)CCCC2 [Example 10, 2-(4-(4-Fluorobenzoyl)piperidin-1-yl)-N-((4-oxo-3,4,5,6,7,8-hexahydroquinazolin-2-yl)methyl)acetamide] | 2700 ± 800 | 700 ± 80 | 27 ± 15 | 479 ± 24 | 393 | 55 ± 3 | 36 ± 2
4 | COc1ccc(C(=O)C2CCN(CC(=O)NCc3nc4c(c(=O)[nH]3)CCC4)CC2)cc1 [Example 11, 2-(4-(4-Methoxybenzoyl)piperidin-1-yl)-N-((4-oxo-4,5,6,7-tetrahydro-3H-cyclopenta[d]pyrimidin-2-yl)methyl)acetamide] | 17900 ± 1800 | 4620 ± 20 | 3 ± 1 | 15 ± 4 | 18 | 28.5 ± 3.5 | 110 ± 140
5 | COc1ccc(C(=O)C2CCN(CC(=O)NCc3nc(C)c(C)c(=O)[nH]3)CC2)cc1 [Example 12, N-((4,5-Dimethyl-6-oxo-1,6-dihydropyrimidin-2-yl)methyl)-2-(4-(4-methoxybenzoyl)piperidin-1-yl)acetamide] | > 19000 | > 19000 | 7 ± 4 | 32 ± 4 | 53 | 40 ± 2 | 20 ± 3
6 | CC(C)(C)CN(Cc1nc2c(c(=O)[nH]1)COCC2)C(=O)CN1CCC(C(=O)c2ccc(F)cc2)CC1 [Example 14, 2-(4-(4-Fluorobenzoyl)piperidin-1-yl)-N-neopentyl-N-((4-oxo-4,5,7,8-tetrahydro-3H-pyrano[4,3-d]pyrimidin-2-yl)methyl)acetamide] | > 19000 | > 19000 | 49 ± 23 | 501 ± 29 | 270 | 60 ± 7 | 20 ± 1
7 | O=C(c1ccc(F)cc1)C1CCN(CC(=O)N(Cc2ccc(F)cc2)Cc2nc3c(c(=O)[nH]2)COCC3)CC1 [Example 15, 2-(4-(4-Fluorobenzoyl)piperidin-1-yl)-N-(4-fluorobenzyl)-N-((4-oxo-4,5,7,8-tetrahydro-3H-pyrano[4,3-d]pyrimidin-2-yl)methyl)acetamide] | > 19000 | > 19000 | 101 ± 74 | 804 ± 91 | 540 | 138 ± 1 | 32 ± 1
8 | COc1ccc(CN(Cc2nc3c(c(=O)[nH]2)COCC3)C(=O)CN2CCC(C(=O)c3ccc(F)cc3)CC2)cc1 [Example 16, 2-(4-(4-Fluorobenzoyl)piperidin-1-yl)-N-(4-methoxybenzyl)-N-((4-oxo-4,5,7,8-tetrahydro-3H-pyrano[4,3-d]pyrimidin-2-yl)methyl)acetamide] | > 19000 | > 19000 | 49 ± 43 | 587 ± 87 | 340 | 66 ± 4 | 15 ± 2
9 | O=C(c1ccc(F)cc1)C1CCN(CC(=O)N(Cc2nc3c(c(=O)[nH]2)COCC3)Cc2nc3ccccc3s2)CC1 [Example 17, N-(Benzo[d]thiazol-2-ylmethyl)-2-(4-(4-fluorobenzoyl)piperidin-1-yl)-N-((4-oxo-4,5,7,8-tetrahydro-3H-pyrano[4,3-d]pyrimidin-2-yl)methyl)acetamide] | > 19000 | > 19000 | 49 ± 37 | 125 ± 18 | 420 | 73 ± 3 | 18 ± 1
10 | COc1cccc(CN(Cc2nc3c(c(=O)[nH]2)COCC3)C(=O)CN2CCC(C(=O)c3ccc(F)cc3)CC2)c1 [Example 18, 2-(4-(4-Fluorobenzoyl)piperidin-1-yl)-N-(3-methoxybenzyl)-N-((4-oxo-4,5,7,8-tetrahydro-3H-pyrano[4,3-d]pyrimidin-2-yl)methyl)acetamide] | > 19000 | > 19000 | 72 ± 62 | 493 ± 87 | 535 ± 7 | 94 ± 1 | 23
11 | O=C(c1ccc(F)cc1)C1CCN(CC(=O)N(Cc2nc3c(c(=O)[nH]2)COCC3)CC2CC2)CC1 [Example 24, N-Cyclopropylmethyl-2-[4-(4-fluoro-benzoyl)-piperidin-1-yl]-N-(4-oxo-3,5,7,8-tetrahydro-4H-pyrano[4,3-d]pyrimidin-2-ylmethyl)-acetamide] | > 19000 | > 19000 |  | 320 ± 180 | 276 ± 37 | 35 ± 10 | 
12 | N#Cc1ccc(CN(Cc2nc3c(c(=O)[nH]2)COCC3)C(=O)CN2CCC(C(=O)c3ccc(F)cc3)CC2)s1 [Example 46, N-(5-Cyano-thiophen-2-ylmethyl)-2-[4-(4-fluoro-benzoyl)-piperidin-1-yl]-N-(4-oxo-3,5,7,8-tetrahydro-4H-pyrano[4,3-d]pyrimidin-2-ylmethyl)-acetamide] | > 19000 | > 19000 | 36 ± 8 | 275 ± 84 |  | 53 ± 4 | 16 ± 1.4
13 | O=C(CN1CCC2(CC1)Cc1cc(F)ccc1C2=O)NCc1nc2c(c(=O)[nH]1)COCC2 [Example 61, 2-(5-Fluoro-1-oxo-1,3-dihydrospiro[indene-2,4′-piperidine]-1′-yl)-N-((4-oxo-4,5,7,8-tetrahydro-3H-pyrano[4,3-d]pyrimidin-2-yl)methyl)acetamide] | 6500 ± 1700 | > 19000 | 1600 ± 800 |  | 8120 | 25 ± 6 | 8 ± 2.6
14 | CCOc1ccc(C(=O)C2CCN(CC(=O)NCc3nc4c(c(=O)[nH]3)COCC4)CC2)cc1 [Example 66, 2-(4-(4-Ethoxybenzoyl)piperidin-1-yl)-N-((4-oxo-4,5,7,8-tetrahydro-3H-pyrano[4,3-d]pyrimidin-2-yl)methyl)acetamide] | 6500 ± 1300 | 3200 ± 1000 | 5690 ± 170 | > 10000 |  | 27 ± 10 | 9 ± 7
15 | COc1cccc(C(=O)C2CCN(CC(=O)N(Cc3nc4c(c(=O)[nH]3)COCC4)CC(F)F)CC2)c1 [Example 73, N-(2,2-Difluoro-ethyl)-2-[4-(3-methoxy-benzoyl)-piperidin-1-yl]-N-(4-oxo-3,5,7,8-tetrahydro-4H-pyrano[4,3-d]pyrimidin-2-ylmethyl)-acetamide] | > 19000 | > 19000 | 470 ± 150 | > 10000 |  | 49 ± 1 | 16 ± 2
